For this assay, the system named is cutaneous anaphylaxis. Nature of the assay: Passive cutaneous anaphylaxis (PCA) in rats. It counts as in vivo, male rats. The settings on record: Rattus norvegicus. The source says:
Passive cutaneous anaphylaxis (PCA) in rats
Cutaneous anaphylaxis was induced in groups of 7 male rats weighing 180 to 220 grams by intradermal (ID) sensitization with antiserum followed, three days later, by systemic challenge with antigen. Evans blue dye injected with the antigen is used as a marker to assess the severity of the local response. Anti-allergic drugs inhibit this reaction and this method has been described by OVARY (1962) in "Passive Cutaneous Anaphylaxis in Allergology" 258-367 Ed. Brown; Pergamon Press.
Preparation of Antigen (or Sensitization)
(Alum-precipitated ovalbumen)
1. Wash 120 grams of Al(OH)3 gel in 140 ml of saline (use of a macerator facilitates mixing).
2. Centrifuge at 3,000 r.p.m. for about 10 minutes.
3. Resuspend the precipitate with 300 ml of albumen egg powder (1.3 mg/ml) in saline and allow to stand for 30 minutes.
4. Centrifuge at 3,000 r.p.m. for 10 minutes.
5. Weigh the wet precipitate and to each gram weight add 1 ml of saline. Store in frigerator.
(Quantity sufficient for 60 rats for a 3 day sensitization program).
Preparation of Antiserum (i.e. anti-ovalbumen)
1. 1 ml of the alum-precipitated ovalbumen was injected subcutaneously into 180-200 gram rats on days 0,2 and 4.
2. The rats were bled on day 14 either by cardiac puncture or via the dorsal abdominal aorta.
3. Equal quantities of serum from each animal were pooled and thoroughly mixed.
4. 2 ml of aliquots were stored at -20° C. in plastic tubes.
The antiserum for sensitization was diluted so that an ID injection of 0.1 ml into control animals gave an average score of a single spot of between 2.0-3.5 using a 5 point scoring system (0,1,2,3,4)
(A) SENSITIZATION: Rats are anaesthetized with Nembutal (40-60 mg/kg i.p.) and then sensitized by four ID injections (0.1 ml each) on their shaved backs. The animals were then left for a period of three days to develop sensitization.
(B) […]: The sensitized rats were anaesthetised and challenged orally or intravenously via the superficial penile vein with 1 ml of an antigen/Evans blue mixture (1 mg albumen egg powder in 0.5 ml saline plus 0.5 ml of 1% Evans blue). The injections were speeded up by using an automatic 1 ml self filling glass syringe. The "challenged" rats were killed after 30 minutes, (usually pithed) and their skin on the dorsal surface was removed. The degree and area of blueing, proportional to the anaphylactic reaction, was assessed on a five point scoring system.
1. Total scores for sites 1,2,3 and 4=X
2. Mean value of X for each group=X
3. X t=X for test group; X c=X for control group
4. % inhibition=(X c-X t)/X c×100/1

By ED50 is commonly meant the dose at which the effect has come halfway, by size or by number of responders. As for `Cn1c(=O)c2nc(C(=O)O)cn2c2ccccc21` [Example 4, 4,5-dihydro-5-methyl-4-oxoimidazo-[1,2-a]-quinoxaline-2-carboxylic acid], the ED50 is, setting by setting: (iv) 0.031 mg/kg; (po) 1.28 mg/kg.

For `CCOC(=O)c1cn2c(n1)c(=O)n(CC)c1ccccc12` [Example 5, Ethyl 4,5-dihydro-5-ethyl-4-oxoimidazo-[1,2-a]-quinoxaline-2-carboxylate], the 50% effect level (po) (ED50) was put at a dose of 0.16 mg/kg.

Regarding `CCCn1c(=O)c2nc(C(=O)O)cn2c2ccccc21` [Example 8, 4,5-dihydro-5-propyl-4-oxoimidazo-[1,2-a]-quinoxaline-2-carboxylic acid], the 50% effective dose (ED50) by setting is: (iv) 0.01 mg/kg; (po) 0.24 mg/kg.

Turning to `CCCCn1c(=O)c2nc(C(=O)O)cn2c2ccccc21` [Example 10, 4,5-dihydro-5-butyl-4-oxoimidazo-[1,2-a]-quinoxaline-2-carboxylic acid], the median effective dose (ED50) turned out to be 0.023 mg/kg (iv) and 0.59 mg/kg (po).

With `CCn1c(=O)c2nc(C(=O)O)cn2c2ccccc21` [Example 6, 4,5-dihydro-5-ethyl-4-oxoimidazo-[1,2-a]-quinoxaline-2-carboxylic acid], the ED50 is 0.01 mg/kg (iv) and 0.45 mg/kg (po).

In the case of `O=C(O)c1cn2c(n1)c(=O)[nH]c1ccccc12` [Example 2, 4,5-dihydro-4-oxoimidazo-[1,2-a]-quinoxaline-2-carboxylic acid], the ED50 (iv) was 0.16 mg/kg and the ED50 (po) came out at 2 mg/kg.

Source of the values: patent US4291033A, “Oxoimidazoquinoxalines” (Roussel Uclaf, priority 1979, dated 1981).
